# From US20060069132A1, “Azolecarboxamide herbicides” (priority 2004, published 2006)
# Read-outs that look alike come from different tables or passages of the source.
# Experiments:
# barnyardgrass = test: Test A pre-/postemergence herbicide test; format: in vivo, Echinochloa crus-galli; details: for pest or weed control at 500 g/ha / pest or weed control at 2000 g/ha: Echinochloa crus-galli, 240 h
# Outline: (§1)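 Visual injury rating on a 0–100 scale (0 no effect, 100 complete control) versus untreated controls, about ten days after treatment in greenhouse. Pre: directed soil spray onto seeded sandy loam. Post: spray to runoff on plants 2–10 cm tall at one- to two-leaf stage.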
# large crabgrass = test: Test A pre-/postemergence herbicide test; format: in vivo, Digitaria sanguinalis; details: for pest or weed control at 500 g/ha / pest or weed control at 2000 g/ha: Digitaria sanguinalis, 240 h
# Outline: as §1
# giant foxtail = test: Test A pre-/postemergence herbicide test; format: in vivo, Setaria faberi; details: for pest or weed control at 500 g/ha / pest or weed control at 2000 g/ha: Setaria faberi, 240 h
# Outline: as §1
# velvetleaf = test: Test A pre-/postemergence herbicide test; format: in vivo, Abutilon theophrasti
# Outline: as §1
# rice = test: Test C flooded paddy test; format: in vivo, Oryza sativa
# Outline: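 Injury scored visually against controls on a 0 (no effect) to 100 (complete control) scale, 12 to 14 days after treatment in greenhouse. Flooded paddy plants treated at 2-leaf stage; postemergence plants at 1- to 4-leaf stage, 2 to 18 cm tall.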
# ducksalad = test: Test C flooded paddy test; format: in vivo, Heteranthera limosa
# [1] = Postemergence, 500 g ai/ha, 0 to 100 scale, 0 no effect, 100 complete control
# [2] = Postemergence, 2000 g ai/ha, 0 to 100 scale, 0 no effect, 100 complete control
# [3] = Preemergence, 500 g ai/ha, visual rating, 0 to 100 scale (0 no effect, 100 complete control)
# [4] = Preemergence, 2000 g ai/ha, 0 to 100 scale, 0 no effect, 100 complete control
# [5] = Preemergence, 2000 g ai/ha, visual rating, 0 to 100 scale (0 no effect, 100 complete control)
# [6] = 62 g ai/ha, scale 0 to 100 (0 no effect, 100 complete control)
# [7] = 125 g ai/ha, scale of 0 to 100, 0 is no effect, 100 is complete control
# [8] = 250 g ai/ha, scale of 0 to 100, 0 is no effect, 100 is complete control
# [9] = 500 g ai/ha, visual rating after 12 to 14 days, scale 0 to 100 (0 no effect, 100 complete control)
# [10] = preemergence, 500 g ai/ha, visual injury, 0 to 100 scale (0 no effect, 100 complete control)
# [11] = 125 g ai/ha, scale 0 to 100 (0 no effect, 100 complete control)
compound,measurement,setting,value
"CCn1nc(C(C)(C)C)cc1C(=O)Nc1cccc(C(=O)NCC(F)(F)F)c1 [Compound 43, 3-(1,1-dimethylethyl)-1-ethyl-N-[3-[[(2,2,2-trifluoroethyl)amino]carbonyl]-phenyl]-1H-pyrazole-5-carboxamide]",pest or weed control at 500 g/ha,"barnyardgrass; post-emergence, Postemergence, 500 g ai/ha, 0 to 100 scale, 0 no effect, 100 complete control, read-out: Plant response rating, Barnyardgrass",90%
same,pest or weed control at 2000 g/ha,"barnyardgrass; post-emergence, Postemergence, 2000 g ai/ha, 0 to 100 scale, 0 no effect, 100 complete control, read-out: Plant response rating, Barnyardgrass",100%
same,pest or weed control at 500 g/ha,"barnyardgrass; pre-emergence, Preemergence, 500 g ai/ha, visual rating, 0 to 100 scale (0 no effect, 100 complete control), read-out: Barnyardgrass plant response rating",60%
same,pest or weed control at 2000 g/ha,"barnyardgrass; pre-emergence, Preemergence, 2000 g ai/ha, 0 to 100 scale, 0 no effect, 100 complete control, read-out: Barnyardgrass plant response rating",90%
same,pest or weed control at 500 g/ha,"large crabgrass; post-emergence, Postemergence, 500 g ai/ha, 0 to 100 scale, 0 no effect, 100 complete control, read-out: Plant response rating, Crabgrass, Large",65%
same,pest or weed control at 2000 g/ha,"large crabgrass; post-emergence, Postemergence, 2000 g ai/ha, 0 to 100 scale, 0 no effect, 100 complete control, read-out: Plant response rating, Crabgrass, Large",90%
same,pest or weed control at 500 g/ha,"large crabgrass; pre-emergence, Preemergence, 500 g ai/ha, visual rating, 0 to 100 scale (0 no effect, 100 complete control), read-out: Crabgrass, Large plant response rating",75%
same,pest or weed control at 2000 g/ha,"large crabgrass; pre-emergence, Preemergence, 2000 g ai/ha, 0 to 100 scale, 0 no effect, 100 complete control, read-out: Crabgrass, Large plant response rating",90%
same,pest or weed control at 500 g/ha,"giant foxtail; post-emergence, Postemergence, 500 g ai/ha, 0 to 100 scale, 0 no effect, 100 complete control, read-out: Plant response rating, Foxtail, Giant",70%
same,pest or weed control at 2000 g/ha,"giant foxtail; post-emergence, Postemergence, 2000 g ai/ha, 0 to 100 scale, 0 no effect, 100 complete control, read-out: Plant response rating, Foxtail, Giant",70%
same,pest or weed control at 500 g/ha,"giant foxtail; pre-emergence, Preemergence, 500 g ai/ha, visual rating, 0 to 100 scale (0 no effect, 100 complete control), read-out: Foxtail, Giant plant response rating",55%
same,pest or weed control at 2000 g/ha,"giant foxtail; pre-emergence, Preemergence, 2000 g ai/ha, 0 to 100 scale, 0 no effect, 100 complete control, read-out: Foxtail, Giant plant response rating",100%
same,pest or weed control at 2000 g/ha,"velvetleaf; Abutilon theophrasti, post-emergence, 240 h, Postemergence, 2000 g ai/ha, 0 to 100 scale, 0 no effect, 100 complete control, read-out: Plant response rating, Velvetleaf",30%
same,pest or weed control at 500 g/ha,"velvetleaf; Abutilon theophrasti, pre-emergence, 240 h, Preemergence, 500 g ai/ha, visual rating, 0 to 100 scale (0 no effect, 100 complete control), read-out: Velvetleaf plant response rating",5%
same,pest or weed control at 2000 g/ha,"velvetleaf; Abutilon theophrasti, pre-emergence, 240 h, Preemergence, 2000 g ai/ha, 0 to 100 scale, 0 no effect, 100 complete control, read-out: Velvetleaf plant response rating",60%
same,plant injury at 62 g/ha,"rice; Oryza sativa, 62 g ai/ha, scale 0 to 100 (0 no effect, 100 complete control), read-out: Rice plant response rating",0%
same,plant injury at 125 g/ha,"rice; Oryza sativa, 125 g ai/ha, scale of 0 to 100, 0 is no effect, 100 is complete control, read-out: Rice plant response rating",0%
same,plant injury at 250 g/ha,"rice; Oryza sativa, 250 g ai/ha, visual rating after 12 to 14 days, scale 0 to 100 (0 no effect, 100 complete control), read-out: Plant response rating, Rice",20%
same,plant injury at 500 g/ha,"rice; Oryza sativa, 500 g ai/ha, visual rating after 12 to 14 days, scale 0 to 100 (0 no effect, 100 complete control), read-out: Plant response rating, Rice",20%
same,pest or weed control at 62 g/ha,"ducksalad; Heteranthera limosa, 62 g ai/ha, scale 0 to 100 (0 no effect, 100 complete control), read-out: Ducksalad plant response rating",0%
same,pest or weed control at 125 g/ha,"ducksalad; Heteranthera limosa, 125 g ai/ha, scale of 0 to 100, 0 is no effect, 100 is complete control, read-out: Ducksalad plant response rating",0%
same,pest or weed control at 250 g/ha,"ducksalad; Heteranthera limosa, 250 g ai/ha, visual rating after 12 to 14 days, scale 0 to 100 (0 no effect, 100 complete control), read-out: Plant response rating, Ducksalad",60%
same,pest or weed control at 500 g/ha,"ducksalad; Heteranthera limosa, 500 g ai/ha, visual rating after 12 to 14 days, scale 0 to 100 (0 no effect, 100 complete control), read-out: Plant response rating, Ducksalad",70%
CCn1nc(C(C)(C)C)cc1C(=O)Nc1cccc(C(=O)NOC)c1 [Compound 67],"Plant response rating, Barnyardgrass",barnyardgrass; [1],0
same,"Plant response rating, Barnyardgrass",barnyardgrass; [2],25
same,Barnyardgrass plant response rating,barnyardgrass; [3],0
same,Barnyardgrass plant response rating,barnyardgrass; [4],30
same,"Plant response rating, Crabgrass, Large",large crabgrass; [1],20
same,"Plant response rating, Crabgrass, Large",large crabgrass; [2],20
same,"Crabgrass, Large plant response rating",large crabgrass; [3],15
same,"Crabgrass, Large plant response rating",large crabgrass; [4],55
same,"Plant response rating, Foxtail, Giant",giant foxtail; [1],10
same,"Plant response rating, Foxtail, Giant",giant foxtail; [2],20
same,"Foxtail, Giant plant response rating",giant foxtail; [3],0
same,"Foxtail, Giant plant response rating",giant foxtail; [4],30
same,"Plant response rating, Velvetleaf",velvetleaf; [2],15
same,Velvetleaf plant response rating,velvetleaf; [3],30
same,Velvetleaf plant response rating,velvetleaf; [5],75
same,Rice plant response rating,rice; [6],0
same,Rice plant response rating,rice; [7],0
same,Rice plant response rating,rice; [8],0
same,"Plant response rating, Rice",rice; [9],30
same,Ducksalad plant response rating,ducksalad; [6],30
same,Ducksalad plant response rating,ducksalad; [7],30
same,Ducksalad plant response rating,ducksalad; [8],40
same,"Plant response rating, Ducksalad",ducksalad; [9],40
CCOC(=O)c1cccc(NC(=O)c2cc(C(C)(C)C)nn2CCF)c1 [Compound 79],"Plant response rating, Barnyardgrass",barnyardgrass; [1],40
same,"Plant response rating, Barnyardgrass",barnyardgrass; [2],40
same,Barnyardgrass plant response rating,barnyardgrass; [3],20
same,Barnyardgrass plant response rating,barnyardgrass; [4],35
same,"Plant response rating, Crabgrass, Large",large crabgrass; [1],20
same,"Plant response rating, Crabgrass, Large",large crabgrass; [2],55
same,"Crabgrass, Large plant response rating",large crabgrass; [3],50
same,"Crabgrass, Large plant response rating",large crabgrass; [4],55
same,"Plant response rating, Foxtail, Giant",giant foxtail; [1],30
same,"Plant response rating, Foxtail, Giant",giant foxtail; [2],40
same,"Foxtail, Giant plant response rating",giant foxtail; [3],10
same,"Foxtail, Giant plant response rating",giant foxtail; [4],40
same,"Plant response rating, Velvetleaf",velvetleaf; [2],50
same,Velvetleaf plant response rating,velvetleaf; [3],20
same,Velvetleaf plant response rating,velvetleaf; [5],70
same,Rice plant response rating,rice; [6],20
same,Rice plant response rating,rice; [7],20
same,Rice plant response rating,rice; [8],20
same,"Plant response rating, Rice",rice; [9],30
same,Ducksalad plant response rating,ducksalad; [6],0
same,Ducksalad plant response rating,ducksalad; [7],0
same,Ducksalad plant response rating,ducksalad; [8],15
same,"Plant response rating, Ducksalad",ducksalad; [9],55
C=CCn1nc(C(C)(C)C)cc1C(=O)Nc1cccc(C(C)=NO)c1 [Compound 117],Barnyardgrass plant response rating,barnyardgrass; [1],45
same,"Plant response rating, Barnyardgrass",barnyardgrass; [2],75
same,Barnyardgrass plant response rating,barnyardgrass; [3],30
same,Barnyardgrass plant response rating,barnyardgrass; [5],70
same,"Crabgrass, Large plant response rating",large crabgrass; [1],40
same,"Plant response rating, Crabgrass, Large",large crabgrass; [2],65
same,"Crabgrass, Large plant response rating",large crabgrass; [3],45
same,"Crabgrass, Large plant response rating",large crabgrass; [5],75
same,"Foxtail, Giant plant response rating",giant foxtail; [1],35
same,"Plant response rating, Foxtail, Giant",giant foxtail; [2],55
same,"Foxtail, Giant plant response rating",giant foxtail; [3],25
same,"Foxtail, Giant plant response rating",giant foxtail; [5],60
same,Velvetleaf plant response rating,velvetleaf; [1],50
same,"Plant response rating, Velvetleaf",velvetleaf; [2],65
same,Velvetleaf plant response rating,velvetleaf; [3],50
same,Velvetleaf plant response rating,velvetleaf; [5],65
same,Rice plant response rating,rice; [6],0
same,Rice plant response rating,rice; [7],15
same,Rice plant response rating,rice; [8],45
same,"Plant response rating, Rice",rice; [9],65
same,Ducksalad plant response rating,ducksalad; [6],0
same,Ducksalad plant response rating,ducksalad; [7],0
same,Ducksalad plant response rating,ducksalad; [8],0
same,"Plant response rating, Ducksalad",ducksalad; [9],60
CCn1nc(C(C)(C)C)cc1C(=O)Nc1cccc(OC(C)C)c1 [Compound 273],Barnyardgrass plant response rating,barnyardgrass; [1],55
same,"Plant response rating, Barnyardgrass",barnyardgrass; [2],75
same,Barnyardgrass plant response rating,barnyardgrass; [5],95
same,Barnyardgrass plant response rating,barnyardgrass; [10],70
same,"Crabgrass, Large plant response rating",large crabgrass; [1],25
same,"Plant response rating, Crabgrass, Large",large crabgrass; [2],65
same,"Crabgrass, Large plant response rating",large crabgrass; [5],100
same,"Crabgrass, Large plant response rating",large crabgrass; [10],75
same,"Foxtail, Giant plant response rating",giant foxtail; [1],50
same,"Plant response rating, Foxtail, Giant",giant foxtail; [2],70
same,"Foxtail, Giant plant response rating",giant foxtail; [5],100
same,"Foxtail, Giant plant response rating",giant foxtail; [10],85
same,Velvetleaf plant response rating,velvetleaf; [1],90
same,"Plant response rating, Velvetleaf",velvetleaf; [2],95
same,Velvetleaf plant response rating,velvetleaf; [5],75
same,Velvetleaf plant response rating,velvetleaf; [10],60
same,Rice plant response rating,"rice; 62 g ai/ha, scale 0 to 100",10
same,Rice plant response rating,rice; [11],40
same,Rice plant response rating,rice; [8],50
same,"Plant response rating, Rice",rice; [9],60
same,Ducksalad plant response rating,"ducksalad; 62 g ai/ha, scale 0 to 100",20
same,Ducksalad plant response rating,ducksalad; [11],50
same,Ducksalad plant response rating,ducksalad; [8],75
same,"Plant response rating, Ducksalad",ducksalad; [9],75
